Measurements: patent publication US20230159511A1, “TETRAHYDROISOQUINOLINE COMPOUNDS AS NRF2 ACTIVATORS” (C4X Discovery Limited, priority 2020, published 2023)

target: T1, human KEAP1 (N-term, residues 321-609) (Homo sapiens, UniProt Q14145); experiment: KEAP1 Kelch Fluorescence Polarization (FP) Assay; type: binding; details: inhibition of Kelch domain-NRF2 interaction; 2 nM FITC-labelled NRF2 peptide, 25 nM KEAP1, 1 h room temperature; compounds below 10 nM cannot be differentiated
T1 construct: human KEAP1 (N-term, residues 321-609)
T1 sequence (Q14145 321-609): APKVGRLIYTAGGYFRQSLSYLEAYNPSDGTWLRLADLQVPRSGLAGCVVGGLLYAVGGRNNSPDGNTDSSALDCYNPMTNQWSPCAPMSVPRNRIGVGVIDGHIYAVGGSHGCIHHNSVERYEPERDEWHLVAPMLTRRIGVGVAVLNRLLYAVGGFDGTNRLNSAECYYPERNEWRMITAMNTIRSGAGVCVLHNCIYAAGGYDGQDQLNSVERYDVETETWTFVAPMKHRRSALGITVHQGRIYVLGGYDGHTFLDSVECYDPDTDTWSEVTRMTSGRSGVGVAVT
Experimental: KEAP1 Kelch Fluorescence Polarization (FP) Assay Method
Inhibition of the Kelch domain-NRF2 interaction was determined using a fluorescence polarization-based competition assay in a black 384-well microplate. Compounds were tested at a starting concentration of 10 μM serially diluted 1:3 to generate a 12-point dose response curve on the Biomek FX robot. Each well contained 2 nM FITC-labelled NRF2 peptide (FITC-LDEETGEFL-NH2) and 25 nM human KEAP1 (N-term, residues 321-609) enzyme in a final volume of 20 μL of assay buffer (50 mM Tris-HCl pH 8.0, 100 mM NaCl, 5 mM MgCl2, 0.005% Tween-20, 0.005% BSA, 0.5% DMSO) in the presence of varying concentrations of test compound. Unlabelled peptide (LDEETGEFL-NH2) at 50 μM (negative control) and 0.5% DMSO (positive control) was used to determine the assay window.
After 1 h at room temperature, fluorescence polarization (excitation 470 nm/emission 530 nm) was measured using an Envision plate reader. IC50 values were determined by fitting the data to a four parameter logistic fit using XLfit or XE Runner within ActivityBase. The assay limit is such that compounds below 10 nM cannot be differentiated.

IC50 [nM] | SMILES
169 | CNC(=O)[C@H]1CCCC[C@H]1C(=O)N1CCc2cccc(OCCNS(=O)(=O)c3cnoc3C)c2[C@H]1CN1C(=O)c2ccccc2C1=O [Example 13, (1S,2R)-2-((S)-1-((1,3-dioxoisoindolin-2-yl)methyl)-8-(2-((5-methylisoxazole)-4-sulfonamido)ethoxy)-1,2,3,4-tetrahydroisoquinoline-2-carbonyl)-N-methylcyclohexane-1-carboxamide]
3010 | CNC(=O)[C@H]1CCCC[C@H]1C(=O)N1CCc2cccc(OCc3ccn[nH]3)c2[C@H]1CN1C(=O)c2ccccc2C1=O [Example 39, (1S,2R)-2-((S)-8-((1H-pyrazol-5-yl)methoxy)-1-((1,3-dioxoisoindolin-2-yl)methyl)-1,2,3,4-tetrahydroisoquinoline-2-carbonyl)-N-methylcyclo hexane-1-carboxamide]
93 | CNC(=O)[C@H]1CCCC[C@H]1C(=O)N1CCc2cccc(O[C@H]3CCN(C(=O)c4cccnc4)C3)c2[C@H]1CN1C(=O)c2ccccc2C1=O [Example 15, (1S,2R)-2-((S)-1-((1,3-dioxoisoindolin-2-yl)methyl)-8-(((S)-1-nicotinoylpyrrolidin-3-yl)oxy)-1,2,3,4-tetrahydroisoquinoline-2-carbonyl)-N-methylcyclohexane-1-carboxamide]
1170 | CNC(=O)[C@H]1CCCC[C@H]1C(=O)N1CCc2cccc(O[C@H]3CCN(C(=O)c4cncs4)C3)c2[C@H]1CNC(C)=O [Example 44]
196 | CNC(=O)[C@H]1CCCC[C@H]1C(=O)N1CCc2cccc(O[C@H]3CCN(C(=O)C4CC4)C3)c2[C@H]1CN1C(=O)c2ccccc2C1=O [Example 19, (1S,2R)-2-((S)-8-(((S)-1-(cyclopropanecarbonyl)pyrrolidin-3-yl)oxy)-1-((1,3-dioxoisoindolin-2-yl)methyl)-1,2,3,4-tetrahydroisoquinoline-2-carbonyl)-N-methylcyclohexane-1-carboxamide]
126 | CNC(=O)N[C@@H](C)C(=O)N1CCc2cccc(O[C@H]3CCN(C(=O)c4cncs4)C3)c2[C@H]1CN1C(=O)c2ccccc2C1=O [Example 36, 1-((S)-1-((S)-1-((1,3-dioxoisoindolin-2-yl)methyl)-8-(((S)-1-(thiazole-5-carbonyl)pyrrolidin-3-yl)oxy)-3,4-dihydroisoquinolin-2(1H)-yl)-1-oxopropan-2-yl)-3-methylurea]
1280 | Cc1cc(C(=O)NCCOc2cccc3c2[C@@H](CN2C(=O)c4ccccc4C2=O)N(C(=O)[C@@H]2CCCC[C@@H]2C(=O)N2CC(O)C2)CC3)no1 [Example 8, N-(2-(((S)-1-((1,3-dioxoisoindolin-2-yl)methyl)-2-((1R,2S)-2-(3-hydroxyazetidine-1-carbonyl)cyclohexane-1-carbonyl)-1,2,3,4-tetrahydroisoquinolin-8-yl)oxy)ethyl)-5-methylisoxazole-3-carboxamide]
292 | CNC(=O)C[C@@H](C)C(=O)N1CCc2cccc(O[C@H]3CCN(C(=O)c4cncs4)C3)c2[C@H]1CN1C(=O)c2ccccc2C1=O [Example 25, (R)-4-((S)-1-((1,3-dioxoisoindolin-2-yl)methyl)-8-(((S)-1-(thiazole-5-carbonyl)pyrrolidin-3-yl)oxy)-3,4-dihydroisoquinolin-2(1H)-yl)-N,3-dimethyl-4-oxobutanamide]
37 | CNC(=O)[C@H]1CCCC[C@H]1C(=O)N1CCc2cccc(OCCNC(=O)c3nc4ccccc4o3)c2[C@H]1CN1C(=O)c2ccccc2C1=O [Example 11, N-(2-(((S)-1-((1,3-dioxoisoindolin-2-yl)methyl)-2-((1R,2S)-2-(methylcarbamoyl)cyclo-hexane-1-carbonyl)-1,2,3,4-tetrahydroisoquinolin-8-yl)oxy)ethyl)benzo[d] oxazole-2-carboxamide]
119 | Cc1cc(C(=O)NCCOc2cccc3c2[C@@H](CN2C(=O)c4ccccc4C2=O)N(C(=O)[C@@H]2CCCC[C@@H]2C(=O)NC2CCC2)CC3)no1 [Example 9, N-(2-(((S)-2-((1R,2S)-2-(cyclobutylcarbamoyl)cyclo-hexane-1-carbonyl)-1-((1,3-dioxoisoindolin-2-yl)methyl)-1,2,3,4-tetrahydroisoquinolin-8-yl)oxy)ethyl)-5-methylisoxazole-3-carboxamide]
533 | CNC(=O)[C@H](C)[C@@H](C)C(=O)N1CCc2c(Cl)ccc(OCc3noc(C(C)C)n3)c2[C@H]1CN1CCCC1=O [Example 59, (2R,3R)-4-((S)-5-chloro-8-((5-isopropyl-1,2,4-oxadiazol-3-yl)methoxy)-1-((2-oxopyrrolidin-1-yl)methyl)-3,4-dihydroisoquinolin-2(1H)-yl)-N,2,3-trimethyl-4-oxobutanamide]
43 | CNC(=O)N1CCCC[C@H]1C(=O)N1CCc2cccc(O[C@H]3CCN(C(=O)c4cncs4)C3)c2[C@H]1CN1C(=O)c2ccccc2C1=O [Example 28, (S)-2-((S)-1-((1,3-dioxoisoindolin-2-yl)methyl)-8-(((S)-1-(thiazole-5-carbonyl)pyrrolidin-3-yl)oxy)-1,2,3,4-tetrahydroisoquinoline-2-carbonyl)-N-methylpiperidine-1-carboxamide]
1700 | COC(=O)N1CCC[C@H]1C(=O)N1CCc2cccc(O[C@H]3CCN(C(=O)c4cncs4)C3)c2[C@H]1CN1C(=O)c2ccccc2C1=O [Example 51, methyl (S)-2-((S)-1-((1,3-dioxoisoindolin-2-yl)methyl)-8-(((S)-1-(thiazole-5-carbonyl)pyrrolidin-3-yl)oxy)-1,2,3,4-tetrahydroisoquinoline-2-carbonyl)pyrrolidine-1-carboxylate]
186 | O=C(NCCCO)[C@H]1CCCC[C@H]1C(=O)N1CCc2cccc(O[C@H]3CCN(C(=O)c4cncs4)C3)c2[C@H]1CN1C(=O)c2ccccc2C1=O [Example 43, (1S,2R)-2-((S)-1-((1,3-dioxoisoindolin-2-yl)methyl)-8-(((S)-1-(thiazole-5-carbonyl)pyrrolidin-3-yl)oxy)-1,2,3,4-tetrahydroisoquinoline-2-carbonyl)-N-(3-hydroxypropyl)cyclohexane-1-carboxamide]
183 | CNC(=O)[C@H]1CCCC[C@H]1C(=O)N1CCc2cccc(O[C@H]3CCN(C(=O)c4cncnc4)C3)c2[C@H]1CN1C(=O)c2ccccc2C1=O [Example 14, (1S,2R)-2-((S)-1-((1,3-dioxoisoindolin-2-yl)methyl)-8-(((S)-1-(pyrimidine-5-carbonyl)pyrrolidin-3-yl)oxy)-1,2,3,4-tetrahydroisoquinoline-2-carbonyl)-N-methylcyclohexane-1-carboxamide]
185 | O=C(NCCO)[C@H]1CCCC[C@H]1C(=O)N1CCc2cccc(O[C@H]3CCN(C(=O)c4cncs4)C3)c2[C@H]1CN1C(=O)c2ccccc2C1=O [Example 35, (1S,2R)-2-((S)-1-((1,3-dioxoisoindolin-2-yl)methyl)-8-(((S)-1-(thiazole-5-carbonyl)pyrrolidin-3-yl)oxy)-1,2,3,4-tetrahydroisoquinoline-2-carbonyl)-N-(2-hydroxyethyl)cyclohexane-1-carboxamide]
196 | Cc1cc(C(=O)NCCOc2cccc3c2[C@@H](CN2C(=O)c4ccccc4C2=O)N(C(=O)[C@@H]2CCCC[C@@H]2C(=O)NC2CC2)CC3)no1 [Example 7, N-(2-(((S)-2-((1R,2S)-2-(cyclopropylcarbamoyl)cyclohexane-1-carbonyl)-1-((1,3-dioxoisoindolin-2-yl)methyl)-1,2,3,4-tetrahydroisoquinolin-8-yl)oxy)ethyl)-5-methylisoxazole-3-carboxamide]
